Biological target: human GLP1R (hGLP1R) (Homo sapiens, UniProt P43220)
Assay: Human GLP1R cAMP agonist assay (GloSensor cAMP Assay)
Format: cell-based
Details: HEK293-SNAP-hGLP1R-GloSensor cells; for Emax: cAMP activity as percent of GLP1 (7-36) EC100 control; for EC50: intracellular cAMP, 12 min at rt
Procedure: Compounds of formula (I) according to the invention were tested in the following cellular assays that measure the intracellular cAMP concentration, beta-arrestin recruitment and receptor internalization. The cAMP is generated by the activation of GLP1R. The extent to which the GLP1R is internalized into the cell and away from the plasma membrane following activation is also shown in Table 2. EC50 for each assay is defined as the concentration of the compound that leads to half of the maximum response (after baseline correction). Emax is defined as the maximum response observed for the test compound, normalized to the maximum response observed for the endogenous ligand (GLP1(7-36)) to GLP1R.
Human GLP1R cAMP Agonist Assay
The agonist activity of compounds was determined using the GloSensor™ cAMP Assay (Promega Corp.), which measures changes in the intracellular concentration of cAMP after ligand activation of GPCRs. The assay uses a biosensor encoded by pGloSensor™-22F cAMP plasmid (Promega, cat #E2301) with cAMP binding domains fused to a mutant form of Photinus pyralis luciferase. Binding to cAMP causes conformational changes that promote large increases in light output, which can be measured by a luminescence detector. HEK293-SNAP-hGLP1R-GloSensor cells stably overexpressing the human GLP1 receptor (hGLP1R) and pGloSensor™-22F were seeded in white 384-well poly-D-Lysine coated plates (Greiner Bio One, cat #781945) in CO2-independent media (Gibco cat #18045-088 with 1.0% FBS, 2 mM L-glutamine, penicillin and streptomycin) and incubated overnight at 37° C., 5% CO2 with humidity. The assay was started the following morning by adding an equal volume of CO2-independent media containing 4% v/v dilution of the GloSensor substrate (Promega, cat #E1291) to all wells. The cell plate was incubated at rt for 2 h in the dark. The Biomek 7 (Beckman Coulter) instrument was used for the liquid handling steps. To generate duplicate dose response curves, 3-fold serially diluted compounds were added in to the cell assay plate to a final volume of 60 μL with final concentrations ranging from 30 μM through 0.06 μM in CO2-independent media containing 0.1% BSA, 0.5 mM IBMX and 0.4% DMSO. In the same plate and assay buffer as the tested compounds, were EC100 control wells containing GLP1 (7-36) peptide (Bachem, cat #H-6795) at a final concentration of 2 nM and also EC0 control wells containing no peptide. This plate was incubated at rt in the dark for 12 min after adding the compounds to the cells. Luminescence was then measured with an Envision 2104 Multilabel reader with “TRF Light Unit, 337 nm” (PerkinElmer) using the Ultra-Sensitive protocol setting “384-well US luminescence detector” with the 384-well luminescence aperture, 0.1 seconds per well. cAMP activity was calculated as percent of the GLP1 (7-36) EC100 control wells: [(sample signal−mean EC0 signal)/(mean EC100 of GLP1 (7-36) signal−mean EC0 signal)}*100. Curve fitting for EC50 determinations was performed in the Helios module of the software package DAVID. The 4-parameter logistic model, Hill slope was used: y=Ainf+(A0−Ainf)/(1+(x/AC50)^Hill Slope) where y is the functional response; x is the compound concentration; A0 is the minimum value (at 0 dose); Ainf is the maximum value (at infinite dose); AC50 corresponds to the point of inflection (i.e. the point on the sigmoid shaped curve halfway between A0 and Ainf). The EC50 value was represented by the AC50 value calculated from Helios in μM. Emax is the maximal activity detected within the concentration range, derived from the fitted curve.
327 μL of Opti-MEM medium (Gibco, cat #31985-062) were mixed with 12 μL of FuGENE® HD (Promega, cat #E2311) and incubated at rt for 5 min. Then 8.2 μL (4 μg, 0.485 μg/μL solution) of pSNAP-hGLP1R plasmid (Cisbio, cat #PSNAP-GLP1) encoding human GLP1R (NCBI Reference Sequence: NM_002062.3) fused with Cisbio's SNAP tag was added in to the Fugene HD/Opti-MEM mix, and incubated at rt for 20 min. […]

Sequence of human GLP1R (hGLP1R) (P43220 24-463): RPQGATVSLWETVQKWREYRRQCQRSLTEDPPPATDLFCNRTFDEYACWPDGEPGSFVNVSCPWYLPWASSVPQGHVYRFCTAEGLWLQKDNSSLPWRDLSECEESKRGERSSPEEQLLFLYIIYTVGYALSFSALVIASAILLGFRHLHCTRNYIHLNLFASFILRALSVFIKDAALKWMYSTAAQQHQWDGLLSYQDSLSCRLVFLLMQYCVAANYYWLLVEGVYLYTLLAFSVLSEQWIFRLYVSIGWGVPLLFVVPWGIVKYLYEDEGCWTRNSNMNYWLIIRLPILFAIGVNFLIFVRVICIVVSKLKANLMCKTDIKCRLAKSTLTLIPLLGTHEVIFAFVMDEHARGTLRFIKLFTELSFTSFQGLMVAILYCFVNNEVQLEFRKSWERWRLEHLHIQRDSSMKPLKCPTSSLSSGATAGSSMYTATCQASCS

| Compound | Emax [%] | EC50 [nM] |
| --- | --- | --- |
| Cc1c(-c2cnc(C(=O)O)o2)nc(CN2CCC(c3cccc4c3O[C@@](C)(c3ccc(Cl)cc3F)O4)CC2)n1C[C@@H]1CCO1 [Compound C-16, 5-(2-((4-((S)-2-(4-chloro-2-fluorophenyl)-2-methylbenzo[d][1,3]dioxol-4-yl)piperidin-1-yl)methyl)-5-methyl-1-(((S)-oxetan-2-yl)methyl)-1H-imidazol-4-yl)oxazole-2-carboxylic acid] | 108 | 0.171 |
| Cc1c(-c2nc(C(=O)O)co2)nc(CN2CCC(c3cccc4c3O[C@@](C)(c3ccc(Cl)cc3F)O4)CC2)n1C[C@@H]1CCO1 [Compound C-13, 2-(2-((4-((S)-2-(4-chloro-2-fluorophenyl)-2-methylbenzo[d][1,3]dioxol-4-yl)piperidin-1-yl)methyl)-5-methyl-1-(((S)-oxetan-2-yl)methyl)-1H-imidazol-4-yl)oxazole-4-carboxylic acid] | 102 | 0.376 |
| CCc1oc(-c2c(C)nc(CN3CCC(c4cccc5c4O[C@@](C)(c4ccc(Cl)cc4F)O5)CC3)n2C[C@@H]2CCO2)nc1C(=O)O [Compound C-10, 2-(2-((4-((S)-2-(4-chloro-2-fluorophenyl)-2-methylbenzo[d][1,3]dioxol-4-yl)piperidin-1-yl)methyl)-4-methyl-1-(((S)-oxetan-2-yl)methyl)-1H-imidazol-5-yl)-5-ethyloxazole-4-carboxylic acid] | 108 | 0.142 |
| Cc1c(-c2nc(C(F)(F)F)c(C(=O)O)o2)nc(CN2CCC(c3cccc4c3O[C@@](C)(c3ccc(Cl)cc3F)O4)CC2)n1C[C@@H]1CCO1 [Compound C-14, 2-(2-((4-((S)-2-(4-chloro-2-fluorophenyl)-2-methylbenzo[d][1,3]dioxol-4-yl)piperidin-1-yl)methyl)-5-methyl-1-(((S)-oxetan-2-yl)methyl)-1H-imidazol-4-yl)-4-(trifluoromethyl)oxazole-5-carboxylic acid] | 104 | 0.492 |
| Cc1nc(CN2CCC(c3cccc4c3O[C@@](C)(c3ccc(Cl)cc3F)O4)CC2)n(C[C@@H]2CCO2)c1-c1nc(C(=O)O)co1 [Compound C-9, 2-(2-((4-((S)-2-(4-chloro-2-fluorophenyl)-2-methylbenzo[d][1,3]dioxol-4-yl)piperidin-1-yl)methyl)-4-methyl-1-(((S)-oxetan-2-yl)methyl)-1H-imidazol-5-yl)oxazole-4-carboxylic acid] | 107 | 0.103 |
| Cc1nc(CN2CCC(c3cccc4c3O[C@@](C)(c3ccc(Cl)cc3F)O4)CC2)n(C[C@@H]2CCO2)c1-c1coc(C(=O)O)n1 [Compound C-20, 4-(2-((4-((S)-2-(4-chloro-2-fluorophenyl)-2-methylbenzo[d][1,3]dioxol-4-yl)piperidin-1-yl)methyl)-4-methyl-1-(((S)-oxetan-2-yl)methyl)-1H-imidazol-5-yl)oxazole-2-carboxylic acid] | 112 | 0.24 |
| Cc1cc(-c2nc(CN3CCC(c4cccc5c4O[C@@](C)(c4ccc(Cl)cc4F)O5)CC3)n(C[C@@H]3CCO3)c2C)oc1C(=O)O [Compound C-19, 5-(2-((4-((S)-2-(4-chloro-2-fluorophenyl)-2-methylbenzo[d][1,3]dioxol-4-yl)piperidin-1-yl)methyl)-5-methyl-1-(((S)-oxetan-2-yl)methyl)-1H-imidazol-4-yl)-3-methylfuran-2-carboxylic acid] | 109 | 0.377 |
| Cc1c(-c2coc(C(=O)O)n2)nc(CN2CCC(c3cccc4c3O[C@@](C)(c3ccc(Cl)cc3F)O4)CC2)n1C[C@@H]1CCO1 [Compound C-18, 4-(2-((4-((S)-2-(4-chloro-2-fluorophenyl)-2-methylbenzo[d][1,3]dioxol-4-yl)piperidin-1-yl)methyl)-5-methyl-1-(((S)-oxetan-2-yl)methyl)-1H-imidazol-4-yl)oxazole-2-carboxylic acid] | 115 | 0.188 |
| Cc1oc(-c2nc(CN3CCC(c4cccc5c4O[C@@](C)(c4ccc(Cl)cc4F)O5)CC3)n(C[C@@H]3CCO3)c2C)nc1C(=O)O [Compound C-12, 2-(2-((4-((S)-2-(4-chloro-2-fluorophenyl)-2-methylbenzo[d][1,3]dioxol-4-yl)piperidin-1-yl)methyl)-5-methyl-1-(((S)-oxetan-2-yl)methyl)-1H-imidazol-4-yl)-5-methyloxazole-4-carboxylic acid] | 114 | 0.575 |
| CCc1nc(CN2CCC(c3cccc4c3O[C@@](C)(c3ccc(Cl)cc3F)O4)CC2)n(C[C@H]2CCO2)c1-c1nc(C(=O)O)co1 [Compound C-7, 2-(2-((4-((S)-2-(4-chloro-2-fluorophenyl)-2-methylbenzo[d][1,3]dioxol-4-yl)piperidin-1-yl)methyl)-4-ethyl-1-(((R)-oxetan-2-yl)methyl)-1H-imidazol-5-yl)oxazole-4-carboxylic acid] | 118 | 0.0351 |
| C[C@]1(c2ccc(Cl)cc2F)Oc2cccc(C3CCN(Cc4nc(C(F)(F)F)c(-c5nc(C(=O)O)co5)n4C[C@@H]4CCO4)CC3)c2O1 [Compound C-4, 2-(2-((4-((S)-2-(4-chloro-2-fluorophenyl)-2-methylbenzo[d][1,3]dioxol-4-yl)piperidin-1-yl)methyl)-1-(((S)-oxetan-2-yl)methyl)-4-(trifluoromethyl)-1H-imidazol-5-yl)oxazole-4-carboxylic acid] | 120 | 0.298 |
| CCc1nc(CN2CCC(c3cccc4c3O[C@@](C)(c3ccc(Cl)cc3F)O4)CC2)n(C[C@@H]2CCO2)c1-c1nc(C(=O)O)co1 [Compound C-5, 2-(2-((4-((S)-2-(4-chloro-2-fluorophenyl)-2-methylbenzo[d][1,3]dioxol-4-yl)piperidin-1-yl)methyl)-4-ethyl-1-(((S)-oxetan-2-yl)methyl)-1H-imidazol-5-yl)oxazole-4-carboxylic acid] | 123 | 0.0418 |
| Cc1nc(CN2CCC(c3cccc4c3O[C@@](C)(c3ccc(Cl)cc3F)O4)CC2)n(C[C@@H]2CCO2)c1-c1cc(C(=O)O)n(C)n1 [Compound C-21, 3-(2-((4-((S)-2-(4-chloro-2-fluorophenyl)-2-methylbenzo[d][1,3]dioxol-4-yl)piperidin-1-yl)methyl)-4-methyl-1-(((S)-oxetan-2-yl)methyl)-1H-imidazol-5-yl)-1-methyl-1H-pyrazole-5-carboxylic acid] | 117 | 0.836 |
| Cc1c(-c2cc(C(=O)O)n(C)n2)nc(CN2CCC(c3cccc4c3O[C@@](C)(c3ccc(Cl)cc3F)O4)CC2)n1C[C@@H]1CCO1 [Compound C-17, 3-(2-((4-((S)-2-(4-chloro-2-fluorophenyl)-2-methylbenzo[d][1,3]dioxol-4-yl)piperidin-1-yl)methyl)-5-methyl-1-(((S)-oxetan-2-yl)methyl)-1H-imidazol-4-yl)-1-methyl-1H-pyrazole-5-carboxylic acid] | 113 | 0.754 |
| Cc1c(-c2ccc(C(=O)O)o2)nc(CN2CCC(c3cccc4c3O[C@@](C)(c3ccc(Cl)cc3F)O4)CC2)n1C[C@@H]1CCO1 [Compound C-24, 5-(2-((4-((S)-2-(4-chloro-2-fluorophenyl)-2-methylbenzo[d][1,3]dioxol-4-yl)piperidin-1-yl)methyl)-5-methyl-1-(((S)-oxetan-2-yl)methyl)-1H-imidazol-4-yl)furan-2-carboxylic acid] | 113 | 0.102 |

Reference: patent publication US20250145600A1, “2-((4-((S)-2-(4-CHLORO-2-FLUOROPHENYL)-2-METHYLBENZO[D][1,3]DIOXOL-4-YL)PIPERIDIN-1-YL)METHYL)-1-(((S)-OXETAN-2-YL)METHYL)-1H-IMIDAZOLE DERIVATIVES AS ACTIVATORS OF THE GLP1 RECEPTOR FOR THE TREATMENT OF OBESITY” (Novartis AG, priority 2022, published 2025)
